Legend:
[1] = Crystal; DTA
[2] = Molar enthalpy of transition or fusion; conditions: Crystal; DSC
[3] = molar heat capacity at constant pressure
[4] = Boiling temperature at pressure P; conditions: 100 kPa; Glass; DTA

COc1cccc(OC)c1O [1,3-dimethoxy-2-hydroxybenzene]
Conditions	Molar enthalpy of transition or fusion [kcal/mol]	Normal melting temperature [°C]
[1]	–	53.2
[2]	12	–

[3], 101.33 kPa, Liquid, DSC
Conditions	molar heat capacity at constant pressure [J/K/mol]
333.16 K	317.27
373.15 K	328.21
413.14 K	333.46
453.12 K	347.18
493.1 K	357.35

CCC(O)c1ccccc1 (stereo not given) [1-phenyl-1-propanol]
Conditions	Boiling temperature at pressure P [°C]	Normal melting temperature [°C]
[1]	–	-10.6
[4]	-74.3	–

[3], 101.33 kPa, Liquid, DSC
Conditions	molar heat capacity at constant pressure [J/K/mol]
273.15 K	279.6
323.15 K	319.91
373.15 K	338.03
423.15 K	352.6
473.15 K	368.94

CC(O)Cc1ccccc1 (stereo not given) [1-phenyl-2-propanol]
Conditions	Boiling temperature at pressure P [°C]
[4]	-72.5

[3], 101.33 kPa, Liquid, DSC
Conditions	molar heat capacity at constant pressure [J/K/mol]
273.15 K	282.05
323.15 K	311.06
373.15 K	329.31
423.15 K	345.52
473.15 K	354.78

CCCOCC(C)O (stereo not given) [1-propoxy-2-propanol]
[3], 101.33 kPa, Liquid, DSC
Conditions	molar heat capacity at constant pressure [J/K/mol]
193.19 K	237.41
223.15 K	247.93
273.16 K	271.09
323.16 K	290.12
373.15 K	314.7

FC(F)C(F)(F)C(F)(F)C(F)(F)C(F)(F)C(F)(F)C(F)(F)C(F)(F)F [1H-perfluorooctane]
Conditions	Molar enthalpy of transition or fusion [kcal/mol]	Normal melting temperature [°C]
[1]	–	-18.8
[2]	2.36	–

[3], 101.33 kPa, Liquid, DSC
Conditions	molar heat capacity at constant pressure [J/K/mol]
258.16 K	446.11
273.16 K	458.71
298.16 K	480.14
323.16 K	494.84
373.14 K	526.76

Cc1ccc(C)o1 [2,5-dimethylfuran]
[3], 101.33 kPa, Liquid, DSC
Conditions	molar heat capacity at constant pressure [J/K/mol]
213.15 K	159.28
253.15 K	163.99
293.15 K	170.63
333.15 K	184.95

CC(C)c1ccccc1O [2-(1-methylethyl)phenol]
Conditions	Molar enthalpy of transition or fusion [kcal/mol]	Normal melting temperature [°C]
[1]	–	12
[2]	2.62	–

molar heat capacity at constant pressure [J/K/mol], [3], 101.33 kPa
Conditions	273.15 K	323.15 K	373.15 K	423.15 K	473.15 K
DSC, Liquid	–	307.38	321.55	337.89	354.37
Metastable liquid, DSC	281.92	–	–	–	–

C/C=C/c1ccc(O)c(OC)c1 [2-methoxy-4-(1E)-1-propen-1-yl-phenol]
Conditions	Molar enthalpy of transition or fusion [kcal/mol]	Normal melting temperature [°C]
[1]	–	21.6
[2]	2.8	–

[3], 101.33 kPa, Liquid, DSC
Conditions	molar heat capacity at constant pressure [J/K/mol]
298.15 K	326.92
323.15 K	336.45
373.15 K	348.43
423.15 K	381.6
473.15 K	387.19

Cc1ccccc1C=O [2-methylbenzaldehyde]
Conditions	Molar enthalpy of transition or fusion [kcal/mol]	Normal melting temperature [°C]
[1]	–	-39.7
[2]	2.44	–

[3], 101.33 kPa, Liquid, DSC
Conditions	molar heat capacity at constant pressure [J/K/mol]
238.16 K	184.43
293.16 K	199.57
348.15 K	217.83
403.13 K	230.69
458.11 K	261.08

CC(CO)c1ccccc1 (stereo not given) [2-phenyl-1-propanol]
Conditions	Boiling temperature at pressure P [°C]
[4]	-75.5

[3], 101.33 kPa, Liquid, DSC
Conditions	molar heat capacity at constant pressure [J/K/mol]
273.15 K	273.34
323.15 K	300.98
373.15 K	325.91
423.15 K	341.98
473.15 K	351.78

Cc1cccc(C=O)c1 [3-methylbenzaldehyde]
Conditions	Normal melting temperature [°C]
[1]	-48.4

[3], 101.33 kPa, Liquid, DSC
Conditions	molar heat capacity at constant pressure [J/K/mol]
273.17 K	189.47
313.16 K	205.93
353.15 K	219.75
393.14 K	235.61
453.11 K	258.08

Cc1cccc(CO)c1 [3-methylbenzyl alcohol]
Conditions	Molar enthalpy of transition or fusion [kcal/mol]	Normal melting temperature [°C]
[1]	–	-8.8
[2]	3.24	–

[3], 101.33 kPa, DSC, Liquid
Conditions	molar heat capacity at constant pressure [J/K/mol]
266.15 K	222.22
306.15 K	250.8
356.15 K	281.1
406.15 K	295.27
456.15 K	308.1

Cc1ccc(C=O)cc1 [4-methylbenzaldehyde]
Conditions	Molar enthalpy of transition or fusion [kcal/mol]	Normal melting temperature [°C]
[1]	–	-10.0
[2]	2.64	–

[3], 101.33 kPa, DSC, Liquid
Conditions	molar heat capacity at constant pressure [J/K/mol]
273.17 K	191.4
313.16 K	204.25
353.15 K	216.27
393.14 K	232.37
453.11 K	250.99

Cc1ccc(C(=O)O)cc1 [4-methylbenzoic acid]
Conditions	Molar enthalpy of transition or fusion [kcal/mol]	Normal melting temperature [°C]
[1]	–	179.0
[2]	5.14	–

[3], 101.33 kPa, Liquid, DSC
Conditions	molar heat capacity at constant pressure [J/K/mol]
458.15 K	331.25
473.15 K	338.33
488.15 K	347.59
503.15 K	353.98
523.15 K	362.02

Cc1ccc(C=O)o1 [5-methylfurfural]
Conditions	Molar enthalpy of transition or fusion [kcal/mol]	Normal melting temperature [°C]
[1]	–	-32.6
[2]	2.76	–

[3], 101.33 kPa, Liquid, DSC
Conditions	molar heat capacity at constant pressure [J/K/mol]
250.15 K	180.47
300.15 K	192.47
350.14 K	202.49
400.13 K	219.34
450.1 K	233.54

CCOC(=O)Cc1ccccc1 [ethyl phenylacetate]
Conditions	Molar enthalpy of transition or fusion [kcal/mol]	Normal melting temperature [°C]
[1]	–	-29
[2]	4.32	–

[3], 101.33 kPa, Liquid, DSC
Conditions	molar heat capacity at constant pressure [J/K/mol]
253.15 K	271.75
293.15 K	288.83
333.15 K	292.77
373.15 K	306.89
413.15 K	326.27

CCCCCCC1CCCCC1 [hexylcyclohexane]
Conditions	Molar enthalpy of transition or fusion [kcal/mol]	Normal melting temperature [°C]
[1]	–	-48.2
[2]	4.91	–

[3], 101.33 kPa, Liquid, DSC
Conditions	molar heat capacity at constant pressure [J/K/mol]
228.16 K	292.03
288.16 K	330.24
348.14 K	361.21
408.13 K	408.85
468.09 K	463.72

CC(=O)Oc1ccccc1 [phenyl ethanoate]
Conditions	Molar enthalpy of transition or fusion [kcal/mol]	Normal melting temperature [°C]
[1]	–	-7
[2]	3.06	–

[3], 101.33 kPa, Liquid, DSC
Conditions	molar heat capacity at constant pressure [J/K/mol]
253.15 K	220.42
293.15 K	224.78
333.15 K	240.03
373.15 K	255.41
413.15 K	269.44

CCCCCC(=O)CCCCC [undecan-6-one]
Conditions	Molar enthalpy of transition or fusion [kcal/mol]	Normal melting temperature [°C]
[1]	–	13
[2]	7.49	–

[3], 101.33 kPa, Liquid, DSC
Conditions	molar heat capacity at constant pressure [J/K/mol]
293.16 K	363.74
343.16 K	381.62
373.15 K	402.4
423.13 K	422.49
473.1 K	463.02

Source: the NIST ThermoML archive (doi:10.1021/acs.jced.7b01026)
